From US9427415B2, “Methods and compositions for modifying sensorial perception” (The Procter & Gamble Company, priority 2014, dated 2016)
Where two headings read alike, the source gives them in different places.

What was measured:
TRPA1V1 = experiment: Intracellular calcium (Fluo-4, FLIPR) activation of TRPA1V1 cells (co-expressing TRPA1 and TRPV1) by GRAS compounds; type: cell-based, human;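 also: HEK293 cells co-expressing TRPA1 and TRPV1, fluorescence read at 488/514 nm after baseline subtraction, recorded every 2 s over 10 min, ionomycin 10 µM and buffer as controls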
human TRPV1 = molecular target: T1, human TRPV1 (Homo sapiens, UniProt Q8NER1, M315I/T336M); experiment: Intracellular calcium (Fluo-4, FLIPR) activation of TRPV1 cells by GRAS compounds; type: cell-based; settings: relative to capsaicin 350 nM;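 also: TRPV1-expressing cells, FLIPR fluorescence at 488/514 nm with baseline subtracted, sampled every 2 s for 10 min after adding compound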
T1 construct: expressed in transfected cells; pcDNA3 control cells

human TRPA1 = molecular target: T2, human TRPA1 (Homo sapiens, UniProt O75762, K186N/R3C/R58T); experiment: Intracellular calcium (Fluo-4, FLIPR) activation of TRPA1 cells by GRAS compounds; type: cell-based; settings: relative to AITC 30 μM; for A1 activation, % of agonist value / activation at 1000 µM: 1 mM;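 as to all read-outs here: TRPA1-expressing cells, fluorescence read on a FLIPR Tetra (ex 488 nm, em 514 nm) every 2 s for 10 min after compound addition, baseline subtracted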
T2 construct: expressed in transfected cells; pcDNA3 control cells

[1] = Table 1(g), 1 mM, relative to capsaicin 350 nM
[2] = Table 1(g), 1 mM, read-out: V1 activation, % of agonist value
[3] = Table 1(h), 1 mM, relative to capsaicin 350 nM
[4] = Table 1(h), 1 mM, read-out: V1 activation, % of agonist value
[5] = Table 1(e), 1 mM, relative to AITC 30 μM
[6] = Table 1(d), read-out: A1 activation, % of agonist value
[7] = Table 1(d), 1 mM, relative to AITC 30 μM
[8] = Table 1(c), 1 mM, relative to AITC 30 μM
[9] = Table 1(c), read-out: A1 activation, % of agonist value
[10] = Table 1(e), read-out: A1 activation, % of agonist value

T1 sequence (Q8NER1 whole entry M315I/T336M): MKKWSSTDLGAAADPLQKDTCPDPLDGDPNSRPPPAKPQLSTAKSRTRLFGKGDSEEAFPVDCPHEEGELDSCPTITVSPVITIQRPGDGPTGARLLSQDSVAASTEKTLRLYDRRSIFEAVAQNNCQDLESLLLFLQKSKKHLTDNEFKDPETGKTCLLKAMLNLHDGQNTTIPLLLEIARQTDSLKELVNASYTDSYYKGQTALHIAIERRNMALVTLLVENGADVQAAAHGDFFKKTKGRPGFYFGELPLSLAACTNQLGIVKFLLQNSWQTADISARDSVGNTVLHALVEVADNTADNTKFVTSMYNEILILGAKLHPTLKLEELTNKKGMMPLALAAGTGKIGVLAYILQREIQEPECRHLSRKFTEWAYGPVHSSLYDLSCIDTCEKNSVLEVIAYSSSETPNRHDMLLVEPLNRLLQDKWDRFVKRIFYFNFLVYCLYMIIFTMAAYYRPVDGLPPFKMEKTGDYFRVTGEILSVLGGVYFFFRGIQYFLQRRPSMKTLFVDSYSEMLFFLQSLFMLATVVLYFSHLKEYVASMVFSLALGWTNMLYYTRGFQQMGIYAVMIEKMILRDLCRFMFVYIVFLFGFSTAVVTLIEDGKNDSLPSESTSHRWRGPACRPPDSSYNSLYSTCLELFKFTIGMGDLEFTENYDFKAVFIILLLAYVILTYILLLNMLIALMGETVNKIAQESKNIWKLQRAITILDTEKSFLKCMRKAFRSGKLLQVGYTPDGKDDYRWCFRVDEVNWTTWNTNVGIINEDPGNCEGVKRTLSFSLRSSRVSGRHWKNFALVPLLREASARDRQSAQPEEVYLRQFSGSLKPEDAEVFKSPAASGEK
T2 sequence (O75762 whole entry R3C/R58T/K186N): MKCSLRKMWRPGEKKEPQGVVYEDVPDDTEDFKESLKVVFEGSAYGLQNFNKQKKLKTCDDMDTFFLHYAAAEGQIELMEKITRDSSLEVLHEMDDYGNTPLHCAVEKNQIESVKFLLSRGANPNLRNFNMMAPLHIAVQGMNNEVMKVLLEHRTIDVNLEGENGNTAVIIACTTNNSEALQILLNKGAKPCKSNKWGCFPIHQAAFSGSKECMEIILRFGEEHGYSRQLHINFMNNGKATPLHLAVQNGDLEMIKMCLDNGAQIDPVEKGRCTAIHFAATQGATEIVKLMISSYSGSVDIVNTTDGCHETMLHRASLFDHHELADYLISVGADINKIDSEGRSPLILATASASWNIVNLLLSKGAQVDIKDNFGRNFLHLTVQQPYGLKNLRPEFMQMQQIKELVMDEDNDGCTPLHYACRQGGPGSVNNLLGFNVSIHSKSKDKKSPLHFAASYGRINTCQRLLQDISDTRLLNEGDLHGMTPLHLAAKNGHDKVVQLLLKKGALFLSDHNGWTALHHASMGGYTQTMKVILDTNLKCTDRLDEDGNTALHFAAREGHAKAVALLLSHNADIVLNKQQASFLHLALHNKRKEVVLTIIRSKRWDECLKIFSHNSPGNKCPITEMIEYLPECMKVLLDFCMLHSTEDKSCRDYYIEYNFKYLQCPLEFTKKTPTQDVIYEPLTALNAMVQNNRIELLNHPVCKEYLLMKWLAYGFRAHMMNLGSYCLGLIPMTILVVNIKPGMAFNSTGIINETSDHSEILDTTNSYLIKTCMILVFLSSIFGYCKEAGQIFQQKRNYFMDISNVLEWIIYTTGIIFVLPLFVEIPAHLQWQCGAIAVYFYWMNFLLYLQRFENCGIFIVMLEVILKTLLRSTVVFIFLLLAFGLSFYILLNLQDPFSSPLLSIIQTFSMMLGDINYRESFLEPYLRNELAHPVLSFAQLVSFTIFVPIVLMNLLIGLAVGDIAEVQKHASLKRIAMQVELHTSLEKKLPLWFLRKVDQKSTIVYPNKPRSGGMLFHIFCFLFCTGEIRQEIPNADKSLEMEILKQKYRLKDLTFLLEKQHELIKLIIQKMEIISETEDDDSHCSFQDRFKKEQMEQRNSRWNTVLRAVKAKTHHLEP

## CC1SCCS1 [1,3-Dithiolane, 2-methyl-]
TRPA1V1; [1]
  A1V1 activation, % of agonist value: 119.9%
Human TRPV1; [2]
  activation at 1000 µM: 66.2%

## C=CCSCC=C [1-Propene, 3,3′-thiobis-]
TRPA1V1; [1]
  A1V1 activation, % of agonist value: 108.4%
Human TRPV1; [2]
  activation at 1000 µM: 47.3%

## CCCCCCCC=CC=CC=O [2,4-Dodecadienal]
TRPA1V1; Table 1(h), 100 μM (marked *), relative to capsaicin 350 nM
  A1V1 activation, % of agonist value: 53.5%
Human TRPV1; Table 1(h), 100 μM (marked *), read-out: V1 activation, % of agonist value
  activation at 100 µM: 199%

## Cc1ccc(C)c(O)c1 [2,5-Dimethylphenol]
TRPA1V1; [3]
  A1V1 activation, % of agonist value: 34.2%
Human TRPV1; [4]
  activation at 1000 µM: 81.2%

## Cc1cccc(C)c1O [2,6-Dimethylphenol]
TRPA1V1; [3]
  A1V1 activation, % of agonist value: 45.8%
Human TRPV1; [4]
  activation at 1000 µM: 72.1%

## O=CC(=Cc1ccco1)c1ccccc1 [2-Furanacrolein, alpha-phenyl-]
TRPA1V1; Table 1(f), 1 mM, relative to capsaicin 350 nM
  A1V1 activation, % of agonist value: 66.2%
Human TRPV1; Table 1(f), 1 mM
  V1 activation, % of agonist value: 55.7%

## CC1=CC(=O)[C@@H](C(C)C)CC1 [L-Piperitone]
Human TRPA1; Table 1(e)
  A1 activation, % of agonist value: 45%
TRPA1V1; [5]
  A1V1 activation, % of agonist value: 68.40%

## C=CC(C)(O)CCC=C(C)C (stereo not drawn) [Linalool]
Human TRPA1; [6]
  activation at 1000 µM: 52.6%
TRPA1V1; [7]
  A1V1 activation, % of agonist value: 20%

## C=CC(C)(CCC=C(C)C)OC(=O)c1ccccc1 (stereo not drawn) [Linalyl benzoate]
Human TRPA1; Table 1(c), 100 μM (*), read-out: A1 activation, % of agonist value
  activation at 100 µM: 44.4%
TRPA1V1; Table 1(c), 100 μM (*), relative to AITC 30 μM
  A1V1 activation, % of agonist value: 55.3%

## CCC(=O)Oc1c(C)occc1=O [Maltol propionate]
Human TRPA1; Table 1(c)
  A1 activation, % of agonist value: 85.04%
TRPA1V1; [8]
  A1V1 activation, % of agonist value: 81.97%

## CC(C)=CCCC(C)C=O (stereo not drawn) [Melonal]
Human TRPA1; Table 1(c)
  A1 activation, % of agonist value: 52%
TRPA1V1; [8]
  A1V1 activation, % of agonist value: 57%

## COC(=O)c1ccccc1OC [Methyl 2-methoxybenzoate]
Human TRPA1; [9]
  activation at 1000 µM: 71.2%
TRPA1V1; [8]
  A1V1 activation, % of agonist value: 74.68%

## CSSc1ccoc1C [Methyl 2-methyl-3-furyl disulfide]
Human TRPA1; [9]
  activation at 1000 µM: 52.6%
TRPA1V1; [8]
  A1V1 activation, % of agonist value: 52%

## CCCCCCC#CC(=O)OC [Methyl 2-nonynoate]
Human TRPA1; [6]
  activation at 1000 µM: 101%
TRPA1V1; [7]
  A1V1 activation, % of agonist value: 76.1%

## COC(=O)CCCc1ccccc1 [Methyl 4-phenylbutyrate]
Human TRPA1; [9]
  activation at 1000 µM: 58.4%
TRPA1V1; [8]
  A1V1 activation, % of agonist value: 50.30%

## CNc1ccccc1C(=O)OC [Methyl N-methylanthranilate]
Human TRPA1; [9]
  activation at 1000 µM: 83.6%
TRPA1V1; [8]
  A1V1 activation, % of agonist value: 86.81%

## CCCCC/C=C\C/C=C\CCCCCCCC(=O)OC [Methyl linoleate]
Human TRPA1; [10]
  activation at 1000 µM: 31%
TRPA1V1; [5]
  A1V1 activation, % of agonist value: 81.7%

## COC(=O)c1ccccc1NC=O [Methyl o-formamidobenzoate]
Human TRPA1; [9]
  activation at 1000 µM: 75.4%
TRPA1V1; [8]
  A1V1 activation, % of agonist value: 75.64%

## COC(=O)c1ccc(OC)cc1 [Methyl p-anisate]
Human TRPA1; [9]
  activation at 1000 µM: 57.5%
TRPA1V1; [8]
  A1V1 activation, % of agonist value: 66.24%

## C/C=C/C=C/C(=O)OC [Methyl sorbate]
Human TRPA1; [9]
  activation at 1000 µM: 76%
Human TRPA1; [10]
  activation at 1000 µM: 46.4%
TRPA1V1; [8]
  A1V1 activation, % of agonist value: 81.15%
TRPA1V1; [5]
  A1V1 activation, % of agonist value: 83.3%

## COC(=O)c1ccc(O)cc1 [Methylparaben]
Human TRPA1; [9]
  activation at 1000 µM: 62%
TRPA1V1; [8]
  A1V1 activation, % of agonist value: 66.33%

## COC(=O)c1ccccc1N(C)C [N,N-Dimethylanthranilic acid methyl ester]
Human TRPA1; [9]
  activation at 1000 µM: 74.2%
TRPA1V1; [8]
  A1V1 activation, % of agonist value: 77.15%

## CCCCCCCCCO [Nonyl alcohol]
Human TRPA1; [9]
  activation at 1000 µM: 71.1%
TRPA1V1; [8]
  A1V1 activation, % of agonist value: 69.4%

## COc1ccccc1C=CC=O [O-Methoxycinnamaldehyde]
Human TRPA1; Table 1(c)
  A1 activation, % of agonist value: 65.3%
TRPA1V1; [8]
  A1V1 activation, % of agonist value: 55.99%

## CC(=O)OCc1ccccc1C [O-Methylbenzyl acetate]
Human TRPA1; Table 1(c)
  A1 activation, % of agonist value: 87.22%
TRPA1V1; [8]
  A1V1 activation, % of agonist value: 77.24%

## Cc1ccccc1OC(=O)C(C)C [O-Tolyl isobutyrate]
Human TRPA1; Table 1(c)
  A1 activation, % of agonist value: 49.37%
TRPA1V1; [8]
  A1V1 activation, % of agonist value: 57.76%

## CCCCCCCCOC(=O)c1ccco1 [Octyl 2-furoate]
Human TRPA1; [6]
  activation at 1000 µM: 54.3%
TRPA1V1; [7]
  A1V1 activation, % of agonist value: 40.60%

## S=C=NCCc1ccccc1 [Phenethyl isothiocyanate]
Human TRPA1; [9]
  activation at 1000 µM: 92%
TRPA1V1; [8]
  A1V1 activation, % of agonist value: 81.46%

## CC(C)C(=O)OCCOc1ccccc1 [Phenoxyethyl isobutyrate]
Human TRPA1; [6]
  activation at 1000 µM: 81%
TRPA1V1; [7]
  A1V1 activation, % of agonist value: 53.9%

## CCC(=O)OCCOc1ccccc1 [Phenoxyethyl propionate]
Human TRPA1; [9]
  activation at 1000 µM: 65.5%
TRPA1V1; [8]
  A1V1 activation, % of agonist value: 79.34%

## CSCCCN=C=S [Propane, 1-isothiocyanato-3-(methylthio)-]
Human TRPA1; [10]
  activation at 1000 µM: 81.6%
TRPA1V1; [5]
  A1V1 activation, % of agonist value: 114.6%

## CCCOC(=O)c1ccccc1 [Propyl benzoate]
Human TRPA1; [6]
  activation at 1000 µM: 40.7%
TRPA1V1; [7]
  A1V1 activation, % of agonist value: 25.7%
